# Measurements published in US20230174662A1, “METHODS OF TREATING CASTRATE-RESISTANT PROSTATE CANCER” (FONDAZIONE PER L'ISTITUTO ONCOLOGICO DI RICERCA (IOR), priority 2019, published 2023).
# Tests used:
# [1] = system: CDCP1 in LNCaP ADS cells; details: DHT stimulation 16 h after 2 days in FAD
# Description: C. Left panel, Quantitative real time PCR analysis of CDCP1 mRNA levels in LNCaP grown in full media, full androgen depreviation (FAD) and stimulated with dihydrotestosterone (DHT 1 μM, 16 h) after grown for 2 days in FAD. Right panel, Western blot analysis of CDCP1, p-SRC, SRC, p-AKT, AKT, p-ERK1/2 and ERK1/2 in LNCaP grown in full media, FAD and stimulated with DHT (1 μM, 16 h) after grown for 2 days in FAD.
# Tissue and cell lysates were prepared with RIPA buffer (Catalog #9806, Cell Signaling Technology) with PMSF (Phenylmethanesulfonyl fluoride; Catalog #329-98-6, Sigma). Protein concentrations of the lysates were measured by Pierce BCA Protein Assay Kit (Catalog #23225, Thermo Scientific). The lysates were then resolved by SDS-PAGE and immunoblotted with the indicated antibodies.
# RNA was extracted using TRIzol® Plus RNA Purification Kit (Catalog #12183555, Life technologies). 1 μg of total RNA was used for cDNA synthesis using SuperScript® III Platinum® One-Step qRT-PCR Kit (Catalog #11732-020, Life technologies). […] All qRT-PCR data presented was normalized using GAPDH, HRPT or 18S rRNA.
# [2] = system: CDCP1 in LNCaP xenografts; assay: Western blot of CDCP1 in LNCaP xenografts; type: in vivo, mouse; details: Enzalutamide alone
# Description: (§1) FIG. 7A. Left panel, Quantification of fold change in growth by crystal violet in LNCaP kept in full media and in LNCaP kept in full media and treated with mAb-CUB4. Right panel, Quantification of fold change in growth by crystal violet in LNCaP kept in FAD and in LNCaP kept in FAD and treated with mAb-CUB4. B. Left panel, Xenografts tumour growth (mm3) of LNCaP cell line untreated, treated with Enzalutamide, Immuno-liposome and treated with the combination of Enzalutamide and immuno-liposome. Right panel, quantification of fold change in protein levels of Cleaved Caspase 3 in LNCaP xenografts groups. C. Western blot analysis of CDCP1 expression, p-SRC and Cleaved Caspase 3 in LNCaP xenografts groups.
# (§2) These findings were further validated in LNCaP-abl cells, an androgen insensitive cell line. […] Given the fact that CDCP1 expression is elevated by androgen deprivation, we postulated that targeting CDCP1 could serve as a powerful tool to treat prostate cancers treated with enzalutamide. […] Since senescence works as a double edge sword that may stimulate cancer cell growth in certain conditions, we decided to develop a novel anti-CDCP1 dual steal immunoliposome carrying doxorubicin (anti-CDCP1 ILs) to eliminate the CDCP1 overexpressing resistant cells.
# [3] = system: LNCaP xenografts; assay: LNCaP xenograft tumour growth in SCID mice; type: in vivo, mouse; details: single agent, LNCaP s.c. in SCID mice, one week; Enzalutamide 10 mg/kg
# Description: as §1, §2
SMILES,CDCP1 expression and protein levels [1],levels of CDCP1 by Western blot [2],effect on tumor growth [3]
"C[C@]12CCC(=O)C[C@@H]1CC[C@@H]1[C@@H]2CC[C@]2(C)[C@@H](O)CC[C@@H]12 [DHT, 5α-Dihydrotestosterone]",reduced its expression and protein levels,–,–
"CNC(=O)c1ccc(N2C(=S)N(c3ccc(C#N)c(C(F)(F)F)c3)C(=O)C2(C)C)cc1F [Enzalutamide, 4-[3-[4-cyano-3-(trifluoromethyl)phenyl]-5,5-dimethyl-4-oxo-2-sulfanylideneimidazolidin-1-yl]-2-fluoro-N-methylbenzamide]",–,significant increased levels of CDCP1,minor effect on tumor growth
